From patent US11332716B2, “Methods and compositions for producing pancreatic beta cells” (The Regents of the University of California, priority 2015, dated 2022)

Test system: PDX1+/NKX6.1+ pancreatic progenitor cells
Assay: Direct differentiation of PDX1+/NKX6.1+ progenitors to pancreatic beta cells
Type: cell-based, human
Settings: alone; does not maintain any progenitor expression
Description: Variations on the direct differentiation method disclosed herein (see, e.g., Examples 13 and 17) were also developed that yielded efficient and cost-effective production of functional pancreatic beta cells from pluripotent stem cells. Illustrated schematically in FIG. 24, one method according to the disclosure provides embryonic stem cells (e.g., human embryonic stem cells) that were exposed to retinoic acid and incubated for a sufficient time to see expression of PDX1. During this time, the cells were not exposed to bone morphogenetic protein (BMP), which can lead to precocious endocrine differentiation and, ultimately, the production of non-functional polyhormonal cells. PDX1^+ cells were then exposed to 50 ng/ml epidermal growth factor (EGF) and 50 ng/ml keratinocyte growth factor (KGF or K) in DMEM basal media containing IX GLUTAMAX™ (Invitrogen), IX non-essential amino acids (Invitrogen) and serum-free IX B27supplement (Life Technologies) for an extended period of 24-48 hours under the culture conditions disclosed herein. The extended incubation of pancreatic progenitor PDX1^+ cells in the absence of BMP led to the efficient production of […] pancreatic progenitor cells. The PDX1^+NKX6.1^+cells were then incubated in an optimized combination of growth factors to induce NGN3 expression while maintaining expression of PD1 and NKX6.1. […]

For `C[C@H](NC(=O)Cc1cc(F)cc(F)c1)C(=O)N[C@@H]1C(=O)N(C)c2ccccc2-c2ccccc21` [gamma secretase inhibitor XX], the endocrine differentiation was “induces endocrine differentiation efficiently”.
